Data reported in paper PMC3968014, “Design and Synthesis of a Library of Lead-Like 2,4-Bisheterocyclic Substituted Thiophenes as Selective Dyrk/Clk Inhibitors” (PLoS ONE, 2014).

Legend:
PTK6 (Brk) = target: T1, PTK6 (Brk) (Homo sapiens, UniProt Q13882); assay: Selectivity panel PTK6; type: biochemical; settings: 5 µM inhibitor
T1 construct: purchased Life Technologies (Invitrogen SelectScreen); Dyrk1A, Dyrk2 and CK2α in-house or gifts

LYN A = target: T2, LYN A (Homo sapiens, UniProt P07948); assay: Selectivity panel LYN A; type: biochemical; settings: 5 µM inhibitor
T2 construct: purchased Life Technologies (Invitrogen SelectScreen); Dyrk1A, Dyrk2 and CK2α in-house or gifts

MAPK12 (p38 gamma, ERK3) = target: T3, MAPK12 (p38 gamma, ERK3) (Homo sapiens, UniProt P53778); assay: Selectivity panel MAPK12; type: biochemical; settings: 5 µM inhibitor
T3 construct: purchased Life Technologies (Invitrogen SelectScreen); Dyrk1A, Dyrk2 and CK2α in-house or gifts

IKBKB (IKK beta) = target: T4, IKBKB (IKK beta) (Homo sapiens, UniProt O14920); assay: Selectivity panel IKBKB; type: biochemical; settings: 5 µM inhibitor
T4 construct: purchased Life Technologies (Invitrogen SelectScreen); Dyrk1A, Dyrk2 and CK2α in-house or gifts

TNK2 (ACK) = target: T5, TNK2 (ACK) (Homo sapiens, UniProt Q07912); assay: Selectivity panel TNK2; type: biochemical; settings: 5 µM inhibitor
T5 construct: purchased Life Technologies (Invitrogen SelectScreen); Dyrk1A, Dyrk2 and CK2α in-house or gifts

PHKG2 = target: T6, PHKG2 (Homo sapiens, UniProt P15735); assay: Selectivity panel PHKG2; type: biochemical; settings: 5 µM inhibitor
T6 construct: purchased Life Technologies (Invitrogen SelectScreen); Dyrk1A, Dyrk2 and CK2α in-house or gifts

MET (cMet) = target: T7, MET (cMet) (Homo sapiens, UniProt P08581); assay: Selectivity panel MET; type: biochemical; settings: 5 µM inhibitor
T7 construct: purchased Life Technologies (Invitrogen SelectScreen); Dyrk1A, Dyrk2 and CK2α in-house or gifts

KDR (VEGFR2) = target: T8, KDR (VEGFR2) (Homo sapiens, UniProt P35968); assay: Selectivity panel KDR; type: biochemical; settings: 5 µM inhibitor
T8 construct: purchased Life Technologies (Invitrogen SelectScreen); Dyrk1A, Dyrk2 and CK2α in-house or gifts

TGFBR1 (ALK5) = target: T9, TGFBR1 (ALK5) (Homo sapiens, UniProt P36897); assay: Selectivity panel TGFBR1; type: biochemical; settings: 5 µM inhibitor
T9 construct: purchased Life Technologies (Invitrogen SelectScreen); Dyrk1A, Dyrk2 and CK2α in-house or gifts

ACVR1 (ALK2) = target: T10, ACVR1 (ALK2) (Homo sapiens, UniProt Q04771); assay: Selectivity panel ACVR1; type: biochemical; settings: 5 µM inhibitor
T10 construct: purchased Life Technologies (Invitrogen SelectScreen); Dyrk1A, Dyrk2 and CK2α in-house or gifts

EPHB3 = target: T11, EPHB3 (Homo sapiens, UniProt P54753); assay: Selectivity panel EPHB3; type: biochemical; settings: 5 µM inhibitor
T11 construct: purchased Life Technologies (Invitrogen SelectScreen); Dyrk1A, Dyrk2 and CK2α in-house or gifts

RPS6KA1 (RSK1) = target: T12, RPS6KA1 (RSK1) (Homo sapiens, UniProt Q15418); assay: Selectivity panel RPS6KA1; type: biochemical; settings: 5 µM inhibitor
T12 construct: purchased Life Technologies (Invitrogen SelectScreen); Dyrk1A, Dyrk2 and CK2α in-house or gifts

RPS6KB1 (p70S6K) = target: T13, RPS6KB1 (p70S6K) (Homo sapiens, UniProt P23443); assay: Selectivity panel RPS6KB1; type: biochemical; settings: 5 µM inhibitor
T13 construct: purchased Life Technologies (Invitrogen SelectScreen); Dyrk1A, Dyrk2 and CK2α in-house or gifts

MAP3K5 (ASK1) = target: T14, MAP3K5 (ASK1) (Homo sapiens, UniProt Q99683); assay: Selectivity panel MAP3K5; type: biochemical; settings: 5 µM inhibitor
T14 construct: purchased Life Technologies (Invitrogen SelectScreen); Dyrk1A, Dyrk2 and CK2α in-house or gifts

HIPK4 = target: T15, HIPK4 (Homo sapiens, UniProt Q8NE63); assay: Selectivity panel HIPK4; type: biochemical; settings: 5 µM inhibitor
T15 construct: purchased Life Technologies (Invitrogen SelectScreen); Dyrk1A, Dyrk2 and CK2α in-house or gifts

CLK4 = target: T16, CLK4 (Homo sapiens, UniProt Q9HAZ1); assay: Selectivity panel CLK4; type: biochemical; settings: 5 µM inhibitor
T16 construct: purchased Life Technologies (Invitrogen SelectScreen); Dyrk1A, Dyrk2 and CK2α in-house or gifts

EEF2K = target: T17, EEF2K (Homo sapiens, UniProt O00418); assay: Selectivity panel EEF2K; type: biochemical; settings: 5 µM inhibitor
T17 construct: purchased Life Technologies (Invitrogen SelectScreen); Dyrk1A, Dyrk2 and CK2α in-house or gifts

PLK2/SNK = target: T18, PLK2/SNK (Homo sapiens, UniProt Q9NYY3); assay: Selectivity panel PLK2/SNK; type: biochemical; settings: 5 µM inhibitor
T18 construct: purchased Life Technologies (Invitrogen SelectScreen); Dyrk1A, Dyrk2 and CK2α in-house or gifts

SRPK1 = target: T19, SRPK1 (Homo sapiens, UniProt Q96SB4); assay: Selectivity panel SRPK1; type: biochemical; settings: 5 µM inhibitor
T19 construct: purchased Life Technologies (Invitrogen SelectScreen); Dyrk1A, Dyrk2 and CK2α in-house or gifts

AMPK A1/B1/G1 = target: T20, AMPK A1/B1/G1 (Homo sapiens, UniProt Q13131); assay: Selectivity panel AMPK; type: biochemical; settings: 5 µM inhibitor
T20 construct: purchased Life Technologies (Invitrogen SelectScreen); Dyrk1A, Dyrk2 and CK2α in-house or gifts

SGK (SGK1) = target: T21, SGK (SGK1) (Homo sapiens, UniProt O00141); assay: Selectivity panel SGK; type: biochemical; settings: 5 µM inhibitor
T21 construct: purchased Life Technologies (Invitrogen SelectScreen); Dyrk1A, Dyrk2 and CK2α in-house or gifts

MAPK10 (JNK3) = target: T22, MAPK10 (JNK3) (Homo sapiens, UniProt P53779); assay: Selectivity panel MAPK10; type: biochemical; settings: 5 µM inhibitor
T22 construct: purchased Life Technologies (Invitrogen SelectScreen); Dyrk1A, Dyrk2 and CK2α in-house or gifts

BRSK1 (SAD1) = target: T23, BRSK1 (SAD1) (Homo sapiens, UniProt Q8TDC3); assay: Selectivity panel BRSK1; type: biochemical; settings: 5 µM inhibitor
T23 construct: purchased Life Technologies (Invitrogen SelectScreen); Dyrk1A, Dyrk2 and CK2α in-house or gifts

PIM2 = target: T24, PIM2 (Homo sapiens, UniProt Q9P1W9); assay: Selectivity panel PIM2; type: biochemical; settings: 5 µM inhibitor
T24 construct: purchased Life Technologies (Invitrogen SelectScreen); Dyrk1A, Dyrk2 and CK2α in-house or gifts

PRKCZ (PKC zeta) = target: T25, PRKCZ (PKC zeta) (Homo sapiens, UniProt Q05513); assay: Selectivity panel PRKCZ; type: biochemical; settings: 5 µM inhibitor
T25 construct: purchased Life Technologies (Invitrogen SelectScreen); Dyrk1A, Dyrk2 and CK2α in-house or gifts

LIMK1 = target: T26, LIMK1 (Homo sapiens, UniProt P53667); assay: Selectivity panel LIMK1; type: biochemical; settings: 5 µM inhibitor
T26 construct: purchased Life Technologies (Invitrogen SelectScreen); Dyrk1A, Dyrk2 and CK2α in-house or gifts

SRC = target: T27, SRC (Homo sapiens, UniProt P12931); assay: Selectivity panel SRC; type: biochemical; settings: 5 µM inhibitor
T27 construct: purchased Life Technologies (Invitrogen SelectScreen); Dyrk1A, Dyrk2 and CK2α in-house or gifts

STK23 (MSSK1) = target: T28, STK23 (MSSK1) (Homo sapiens, UniProt Q9UPE1); assay: Selectivity panel STK23; type: biochemical; settings: 5 µM inhibitor
T28 construct: purchased Life Technologies (Invitrogen SelectScreen); Dyrk1A, Dyrk2 and CK2α in-house or gifts

U2OS osteosarcoma cells = assay: ROS Assay (dihydroethidium); type: cell-based; settings: 48 hours
Description: U2OS osteosarcoma cells were plated on six well cell culture plates (5*10^5 cells/well). […]. Cells were washed with phosphate–buffered saline (PBS) and incubated for 30 min at 37°C in the dark with 10 µM dihydroethidium (DHE) in PBS and washed with PBS. The cells were then trypsinized, collected by centrifugation, and lysed with lysis buffer (100 mM Tris/HCl, pH 7.3, 2 mM EGTA, 2% Triton X100). The amount of ethidium produced by reactive oxygen species (ROS) was quantified by measuring the fluorescence (Ex485, Em620) in a POLARstar plate reader (BMG Labtech, Offenburg, Germany). Values obtained for different compound concentrations were compared using the two-sided Student's t-test; levels of significance thus obtained are indicated by asterisks.

T14 sequence (Q99683 whole entry): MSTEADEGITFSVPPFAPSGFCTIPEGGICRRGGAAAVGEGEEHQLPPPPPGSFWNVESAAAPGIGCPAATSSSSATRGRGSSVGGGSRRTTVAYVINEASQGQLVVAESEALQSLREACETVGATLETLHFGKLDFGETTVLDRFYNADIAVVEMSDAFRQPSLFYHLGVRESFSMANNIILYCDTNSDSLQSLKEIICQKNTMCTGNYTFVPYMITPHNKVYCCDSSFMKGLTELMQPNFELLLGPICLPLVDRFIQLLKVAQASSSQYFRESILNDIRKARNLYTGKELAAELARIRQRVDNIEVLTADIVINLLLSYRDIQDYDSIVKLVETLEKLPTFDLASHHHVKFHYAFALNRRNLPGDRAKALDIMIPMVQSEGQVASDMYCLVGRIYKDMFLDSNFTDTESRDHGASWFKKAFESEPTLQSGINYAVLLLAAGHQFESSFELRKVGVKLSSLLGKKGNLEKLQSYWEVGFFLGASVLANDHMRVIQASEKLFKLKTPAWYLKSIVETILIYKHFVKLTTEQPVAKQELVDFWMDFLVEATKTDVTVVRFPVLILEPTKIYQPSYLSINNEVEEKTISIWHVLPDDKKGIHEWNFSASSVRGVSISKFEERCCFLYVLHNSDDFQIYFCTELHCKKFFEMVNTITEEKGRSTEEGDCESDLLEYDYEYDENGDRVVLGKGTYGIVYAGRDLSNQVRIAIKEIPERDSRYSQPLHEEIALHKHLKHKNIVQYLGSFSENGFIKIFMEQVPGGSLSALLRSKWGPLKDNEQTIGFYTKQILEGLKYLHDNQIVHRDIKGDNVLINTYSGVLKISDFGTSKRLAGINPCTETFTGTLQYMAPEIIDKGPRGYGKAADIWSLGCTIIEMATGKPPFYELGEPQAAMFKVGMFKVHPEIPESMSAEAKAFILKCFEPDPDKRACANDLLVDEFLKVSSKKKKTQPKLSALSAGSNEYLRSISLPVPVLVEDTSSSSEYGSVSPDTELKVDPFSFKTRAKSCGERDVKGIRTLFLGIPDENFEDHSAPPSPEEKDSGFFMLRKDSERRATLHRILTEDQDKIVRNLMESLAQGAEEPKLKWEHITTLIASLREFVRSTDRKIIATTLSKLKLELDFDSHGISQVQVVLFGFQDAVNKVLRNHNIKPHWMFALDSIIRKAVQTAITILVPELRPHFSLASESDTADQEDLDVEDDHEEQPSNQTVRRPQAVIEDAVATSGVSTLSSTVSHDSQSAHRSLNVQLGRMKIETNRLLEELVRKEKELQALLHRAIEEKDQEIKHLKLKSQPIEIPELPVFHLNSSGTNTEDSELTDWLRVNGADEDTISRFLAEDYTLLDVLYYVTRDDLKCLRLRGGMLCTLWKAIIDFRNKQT
T25 sequence (Q05513 whole entry): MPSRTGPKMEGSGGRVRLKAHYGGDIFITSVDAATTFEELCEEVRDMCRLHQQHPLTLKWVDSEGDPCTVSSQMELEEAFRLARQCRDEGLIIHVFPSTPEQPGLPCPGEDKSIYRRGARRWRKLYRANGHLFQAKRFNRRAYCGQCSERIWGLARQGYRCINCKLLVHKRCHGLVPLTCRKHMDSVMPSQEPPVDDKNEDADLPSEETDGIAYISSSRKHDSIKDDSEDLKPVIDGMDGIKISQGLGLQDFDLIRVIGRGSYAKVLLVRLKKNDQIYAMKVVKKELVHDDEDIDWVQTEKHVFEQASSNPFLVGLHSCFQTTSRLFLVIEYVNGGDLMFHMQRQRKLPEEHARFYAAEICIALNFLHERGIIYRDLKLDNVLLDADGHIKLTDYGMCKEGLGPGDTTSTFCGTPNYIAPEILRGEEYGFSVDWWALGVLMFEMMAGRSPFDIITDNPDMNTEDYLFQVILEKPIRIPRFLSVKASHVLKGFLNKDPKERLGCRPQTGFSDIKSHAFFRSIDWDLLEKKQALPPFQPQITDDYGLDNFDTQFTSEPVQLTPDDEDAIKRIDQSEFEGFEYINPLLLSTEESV
T11 sequence (P54753 34-998): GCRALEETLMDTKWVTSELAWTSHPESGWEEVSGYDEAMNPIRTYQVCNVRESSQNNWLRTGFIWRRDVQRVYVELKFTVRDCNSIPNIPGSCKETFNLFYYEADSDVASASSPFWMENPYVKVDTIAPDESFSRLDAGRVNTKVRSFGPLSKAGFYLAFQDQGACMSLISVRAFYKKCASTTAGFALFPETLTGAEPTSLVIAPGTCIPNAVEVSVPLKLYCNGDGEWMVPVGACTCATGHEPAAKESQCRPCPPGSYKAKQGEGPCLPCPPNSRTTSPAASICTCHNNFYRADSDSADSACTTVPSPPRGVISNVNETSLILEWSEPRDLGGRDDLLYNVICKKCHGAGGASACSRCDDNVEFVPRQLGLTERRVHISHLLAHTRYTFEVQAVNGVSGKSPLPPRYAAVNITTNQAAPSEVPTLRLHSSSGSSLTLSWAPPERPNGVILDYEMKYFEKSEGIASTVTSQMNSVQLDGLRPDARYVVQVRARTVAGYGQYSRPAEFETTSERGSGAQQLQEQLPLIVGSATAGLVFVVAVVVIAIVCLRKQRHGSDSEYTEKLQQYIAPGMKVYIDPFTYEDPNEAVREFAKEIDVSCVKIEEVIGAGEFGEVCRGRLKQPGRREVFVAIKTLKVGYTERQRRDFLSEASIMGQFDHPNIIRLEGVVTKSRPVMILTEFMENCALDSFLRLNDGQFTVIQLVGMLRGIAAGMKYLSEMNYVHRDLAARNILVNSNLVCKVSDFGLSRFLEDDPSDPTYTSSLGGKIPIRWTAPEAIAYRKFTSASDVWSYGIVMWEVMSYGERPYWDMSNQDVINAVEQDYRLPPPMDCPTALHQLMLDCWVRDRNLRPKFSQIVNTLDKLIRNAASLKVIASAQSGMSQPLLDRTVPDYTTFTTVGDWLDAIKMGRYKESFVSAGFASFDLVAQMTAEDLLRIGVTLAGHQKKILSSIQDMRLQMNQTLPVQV
T2 sequence (P07948 whole entry): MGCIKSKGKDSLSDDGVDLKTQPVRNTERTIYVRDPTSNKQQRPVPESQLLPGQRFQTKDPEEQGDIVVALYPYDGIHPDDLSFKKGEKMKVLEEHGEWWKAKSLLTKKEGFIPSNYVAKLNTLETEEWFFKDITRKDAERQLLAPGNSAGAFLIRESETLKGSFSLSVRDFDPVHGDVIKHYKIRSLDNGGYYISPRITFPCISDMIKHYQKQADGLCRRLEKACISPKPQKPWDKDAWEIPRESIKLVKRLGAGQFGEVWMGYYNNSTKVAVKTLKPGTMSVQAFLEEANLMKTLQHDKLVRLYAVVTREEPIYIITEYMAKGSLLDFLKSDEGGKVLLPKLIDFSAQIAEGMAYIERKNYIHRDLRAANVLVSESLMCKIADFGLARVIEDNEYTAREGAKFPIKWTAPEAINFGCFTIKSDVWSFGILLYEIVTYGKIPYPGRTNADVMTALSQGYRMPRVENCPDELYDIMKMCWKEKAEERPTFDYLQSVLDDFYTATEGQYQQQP
T28 sequence (Q9UPE1 whole entry): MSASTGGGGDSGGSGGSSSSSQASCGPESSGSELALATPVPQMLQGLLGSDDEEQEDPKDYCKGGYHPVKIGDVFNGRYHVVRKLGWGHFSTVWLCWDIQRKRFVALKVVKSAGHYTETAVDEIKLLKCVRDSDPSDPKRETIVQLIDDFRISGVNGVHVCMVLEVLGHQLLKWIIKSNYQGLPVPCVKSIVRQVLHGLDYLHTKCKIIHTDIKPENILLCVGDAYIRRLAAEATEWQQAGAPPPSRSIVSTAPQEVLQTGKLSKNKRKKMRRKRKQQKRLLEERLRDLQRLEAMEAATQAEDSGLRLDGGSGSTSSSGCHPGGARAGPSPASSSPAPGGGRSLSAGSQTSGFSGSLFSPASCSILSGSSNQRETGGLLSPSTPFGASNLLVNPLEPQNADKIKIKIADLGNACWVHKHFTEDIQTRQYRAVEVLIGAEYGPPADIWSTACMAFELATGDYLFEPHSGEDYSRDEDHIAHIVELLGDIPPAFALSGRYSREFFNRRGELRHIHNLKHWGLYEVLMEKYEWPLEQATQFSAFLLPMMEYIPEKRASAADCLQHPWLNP
T3 sequence (P53778 whole entry): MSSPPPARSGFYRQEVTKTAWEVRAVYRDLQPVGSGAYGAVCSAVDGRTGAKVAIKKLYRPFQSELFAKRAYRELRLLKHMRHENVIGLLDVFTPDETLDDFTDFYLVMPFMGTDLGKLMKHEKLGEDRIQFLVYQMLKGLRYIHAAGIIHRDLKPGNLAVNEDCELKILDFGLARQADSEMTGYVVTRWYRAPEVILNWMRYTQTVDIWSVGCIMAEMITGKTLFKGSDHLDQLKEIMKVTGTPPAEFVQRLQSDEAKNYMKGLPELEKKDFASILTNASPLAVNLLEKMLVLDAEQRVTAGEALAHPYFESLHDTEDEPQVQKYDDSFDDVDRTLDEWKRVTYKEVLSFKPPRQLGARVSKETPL
T6 sequence (P15735 whole entry): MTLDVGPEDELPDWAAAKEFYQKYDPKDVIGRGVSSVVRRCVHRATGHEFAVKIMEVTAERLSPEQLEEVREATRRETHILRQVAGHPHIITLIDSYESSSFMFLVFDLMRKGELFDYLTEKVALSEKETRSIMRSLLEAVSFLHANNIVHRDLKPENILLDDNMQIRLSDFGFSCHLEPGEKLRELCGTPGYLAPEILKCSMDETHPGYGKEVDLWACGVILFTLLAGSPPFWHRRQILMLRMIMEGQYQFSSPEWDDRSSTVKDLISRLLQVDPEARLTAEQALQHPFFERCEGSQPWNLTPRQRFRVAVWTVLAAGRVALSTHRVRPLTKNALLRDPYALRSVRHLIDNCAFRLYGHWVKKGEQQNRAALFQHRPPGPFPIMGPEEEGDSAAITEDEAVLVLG

Row | SMILES | inhibition at 5 µM (PTK6 (Brk)) [%] | inhibition at 5 µM (LYN A) [%] | inhibition at 5 µM (MAPK12 (p38 gamma, ERK3)) [%] | inhibition at 5 µM (IKBKB (IKK beta)) [%] | inhibition at 5 µM (TNK2 (ACK)) [%] | inhibition at 5 µM (PHKG2) [%] | inhibition at 5 µM (MET (cMet)) [%] | inhibition at 5 µM (KDR (VEGFR2)) [%] | inhibition at 5 µM (TGFBR1 (ALK5)) [%] | inhibition at 5 µM (ACVR1 (ALK2)) [%] | inhibition at 5 µM (EPHB3) [%] | inhibition at 5 µM (RPS6KA1 (RSK1)) [%] | inhibition at 5 µM (RPS6KB1 (p70S6K)) [%] | inhibition at 5 µM (MAP3K5 (ASK1)) [%] | inhibition at 5 µM (HIPK4) [%] | inhibition at 5 µM (CLK4) [%] | inhibition at 5 µM (EEF2K) [%] | inhibition at 5 µM (PLK2/SNK) [%] | inhibition at 5 µM (SRPK1) [%] | inhibition at 5 µM (AMPK A1/B1/G1) [%] | other results
1 | c1cncc(-c2csc(-c3cncs3)c2)c1 [Compound 48, 3-[5-(1,3-thiazol-5-yl)thiophen-3-yl]pyridine] | 34 | 13 | 3 | 12 | 8 | -11 | -12 | 10 | 22 | 51 | 1 | 4 | -4 | 6 | 7 | 99 | 1 | 1 | 1 | -5 | inhibition at 5 µM (SGK (SGK1)): 22%; inhibition at 5 µM (MAPK10 (JNK3)): 2%; inhibition at 5 µM (BRSK1 (SAD1)): -4%; inhibition at 5 µM (PIM2): 5%; inhibition at 5 µM (PRKCZ (PKC zeta)): -25%; inhibition at 5 µM (LIMK1): 4%; inhibition at 5 µM (SRC): -4%; inhibition at 5 µM (STK23 (MSSK1)): 0%
2 | c1cncc(-c2cc(-c3cncs3)cs2)c1 [Compound 29, 3-[4-(1,3-thiazol-5-yl)thiophen-2-yl]pyridine] | 30 | 16 | -2 | 8 | 8 | -12 | 1 | 6 | 24 | 51 | 0 | 2 | -2 | 4 | 7 | 105 | 0 | -3 | 3 | -9 | concentration at which enhancement of reporter dye fluorescence (ROS) starts (U2OS osteosarcoma cells): 0.2 µM; inhibition at 5 µM (SGK (SGK1)): 20%; inhibition at 5 µM (MAPK10 (JNK3)): 4%; inhibition at 5 µM (BRSK1 (SAD1)): 11%; inhibition at 5 µM (PIM2): 7%; inhibition at 5 µM (PRKCZ (PKC zeta)): -23%; inhibition at 5 µM (LIMK1): 11%; inhibition at 5 µM (SRC): -8%; inhibition at 5 µM (STK23 (MSSK1)): 2%
